In ChEMBL document CHEMBL1146011, “Diaryl substituted pyrrolidinones and pyrrolones as 5-HT2C inhibitors: synthesis and biological evaluation” (Bioorg Med Chem Lett, 2006):

Legend:
[1] = target: 5-hydroxytryptamine receptor 2A (Homo sapiens, UniProt P28223); experiment: Binding affinity to human 5HT2A receptor
[2] = target: T1, 5-hydroxytryptamine receptor 2C (Homo sapiens, UniProt P28335); experiment: Binding affinity to human 5HT2C receptor
T1 sequence (P28335 whole entry): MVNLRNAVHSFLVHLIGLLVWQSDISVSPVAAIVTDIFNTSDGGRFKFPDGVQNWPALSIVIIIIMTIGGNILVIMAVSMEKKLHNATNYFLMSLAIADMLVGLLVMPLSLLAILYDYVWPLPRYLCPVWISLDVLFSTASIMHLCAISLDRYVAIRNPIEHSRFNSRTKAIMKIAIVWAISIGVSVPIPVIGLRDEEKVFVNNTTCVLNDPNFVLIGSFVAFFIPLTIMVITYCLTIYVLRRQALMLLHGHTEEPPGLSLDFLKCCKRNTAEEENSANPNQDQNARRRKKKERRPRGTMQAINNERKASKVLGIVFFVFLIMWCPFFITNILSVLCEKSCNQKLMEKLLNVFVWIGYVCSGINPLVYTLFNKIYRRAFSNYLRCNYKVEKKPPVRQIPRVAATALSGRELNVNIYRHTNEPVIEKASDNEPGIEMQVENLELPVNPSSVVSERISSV

[3] = target: 5-hydroxytryptamine receptor 2B (Homo sapiens, UniProt P41595); experiment: Binding affinity to human 5HT2B receptor
5-hydroxytryptamine receptor 2B, sequence (P41595 whole entry): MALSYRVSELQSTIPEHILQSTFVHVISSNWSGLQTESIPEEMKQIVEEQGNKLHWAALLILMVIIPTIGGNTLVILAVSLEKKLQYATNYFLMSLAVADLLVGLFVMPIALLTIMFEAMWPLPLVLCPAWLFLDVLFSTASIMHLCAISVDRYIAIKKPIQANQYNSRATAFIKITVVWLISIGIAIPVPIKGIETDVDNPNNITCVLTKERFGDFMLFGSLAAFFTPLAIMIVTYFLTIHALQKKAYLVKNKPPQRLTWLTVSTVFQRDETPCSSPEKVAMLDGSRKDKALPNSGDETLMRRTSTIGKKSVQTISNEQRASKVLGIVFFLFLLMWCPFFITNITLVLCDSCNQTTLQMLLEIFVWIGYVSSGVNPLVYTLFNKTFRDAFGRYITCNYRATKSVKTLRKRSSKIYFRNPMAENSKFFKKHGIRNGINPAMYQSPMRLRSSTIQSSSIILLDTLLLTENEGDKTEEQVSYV

[4] = Plasma clearance in orally dosed rat; type: ADME, organism-based; conditions: po
[5] = Half life in orally dosed rat; type: ADME, organism-based; conditions: in vivo, po
[6] = tested on: Rattus norvegicus; experiment: Volume of distribution in orally dosed rat; type: ADME, organism-based; conditions: in vivo, po
[7] = tested on: Rattus norvegicus; experiment: Drug level in orally dosed rat brain; type: ADME, organism-based; conditions: in vivo, po
[8] = Bioavailability in orally dosed rat; type: ADME, organism-based; conditions: in vivo, po
[9] = Ratio of drug level in brain against plasma in orally dosed rat; type: ADME, organism-based; conditions: po, read-out: BPR

5-hydroxytryptamine receptor 2A, sequence (P28223 whole entry): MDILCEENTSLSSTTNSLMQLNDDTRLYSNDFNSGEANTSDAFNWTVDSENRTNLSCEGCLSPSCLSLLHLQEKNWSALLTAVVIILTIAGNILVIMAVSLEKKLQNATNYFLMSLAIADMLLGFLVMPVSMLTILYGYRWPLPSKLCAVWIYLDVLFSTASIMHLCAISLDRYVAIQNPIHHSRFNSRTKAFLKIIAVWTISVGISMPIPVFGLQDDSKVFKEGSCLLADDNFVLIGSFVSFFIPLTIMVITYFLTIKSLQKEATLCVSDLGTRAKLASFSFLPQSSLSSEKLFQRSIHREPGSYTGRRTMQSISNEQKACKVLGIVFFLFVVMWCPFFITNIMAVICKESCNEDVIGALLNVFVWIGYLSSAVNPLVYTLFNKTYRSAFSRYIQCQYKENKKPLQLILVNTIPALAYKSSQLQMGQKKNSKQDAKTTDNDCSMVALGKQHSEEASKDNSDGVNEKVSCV

Ki [1] [µM]	Ki [2] [µM]	Ki [3] [µM]	Structure (SMILES)	further results
0.631	0.00251	0.631	COc1ccc(N2CC=C(c3cccc(Cl)c3)C2=O)cc1OCCN1CCCCC1	
> 10	0.1	> 10	COc1ccc(N2CCC(c3ccc(OC)c(OCCN4CCCCC4)c3)C2=O)cc1 (stereo not drawn)	
0.794	0.00316	> 0.794	COc1ccc(N2CC=C(c3ccc(Cl)c(Cl)c3)C2=O)cc1OCCN1CCC(C)CC1	CL/F [4]: 11 mL/min/kg; half-life [5]: 4.5 h; Vdss [6]: 4 L; Drug uptake [7]: 1058 ng/g; bioavailability [8]: 52%; Kp [9]: 7.2
0.158	0.00126	0.2	COc1ccc(N2CC=C(c3ccc(Br)cc3)C2=O)cc1OCCN1CCCCC1	
> 7.94	0.1	> 1.58	COc1ccc(N2CCC(c3cccc(F)c3)C2=O)cc1OCCN1CCCCC1 (stereo not drawn)	
0.631	0.00631	> 1.58	COc1ccc(N2CC=C(c3ccc(Cl)cc3)C2=O)cc1OCCN1CCC(C)CC1	
> 1.26	0.0126	> 1	COc1ccc(N2CC=C(c3ccc(C(F)(F)F)cc3)C2=O)cc1OCCN1CCCCC1	
	0.00501	> 0.794	COc1ccc(N2CCC(C)(c3ccc(Cl)c(Cl)c3)C2=O)cc1OCCN1CCC(C)CC1 (stereo not drawn)	CL/F [4]: 20 mL/min/kg; Log Ki [1]: > -6.3; bioavailability [8]: 50%; Kp [9]: 1.8
> 3.16	0.316	> 1.58	CC(=O)Nc1ccc(N2CCC(c3ccc(Cl)c(Cl)c3)C2=O)cc1OCCN1CCCCC1 (stereo not drawn)	
0.631	0.00158	1.58	COc1ccc(N2CC=C(c3ccc(C)cc3)C2=O)cc1OCCN1CCC(C)CC1	
1.26	0.00501	0.126	COc1ccc(C2=CCN(c3ccc(Cl)c(Cl)c3)C2=O)cc1OCCN1CCCCC1	
> 1	0.0158	> 1.58	COc1ccc(N2CCC(c3ccc(OC)c(OCCN4CCCCC4)c3)C2=O)cc1F (stereo not drawn)	
> 6.31	0.00501		COc1ccc(N2CC=C(c3ccc(OC)c(OCCN4CCCCC4)c3)C2=O)cc1Cl	Log Ki [3]: > -6.4
0.398	0.2	0.501	COc1ccc(C2=C(C)CN(c3ccc(Cl)cc3)C2=O)cc1OCCN1CCCCC1	
> 5.01	0.00794	> 5.01	COc1ccc(N2CC=C(c3ccc(Cl)c(Cl)c3)C2=O)cc1OCCN1CCC(F)(F)CC1	
0.794	0.01	0.398	COc1ccc(C2CCN(c3ccc(Cl)c(Cl)c3)C2=O)cc1OCCN1CCCCC1 (stereo not drawn)	
1	0.00631	0.501	COc1ccc(C2=CCN(c3cccc(F)c3)C2=O)cc1OCCN1CCCCC1	
> 3.16	0.00631	> 1.58	COc1ccc(N2CC=C(c3ccc(OC)c(OCCN4CCCCC4)c3)C2=O)cc1F	
> 1.26	0.00794	> 2	COc1ccc(N2CC=C(c3ccc(Cl)c(F)c3)C2=O)cc1OCCN1CCC(C)CC1	
> 1	0.0251	> 1	COc1ccc(N2CCC(c3cccc(Cl)c3)C2=O)cc1OCCN1CCCCC1 (stereo not drawn)	
> 5.01	0.01	> 2	COc1ccc(N2CC=C(c3ccc(OC)c(OCCN4CCCCC4)c3)C2=O)cc1	
0.631	0.00501	1	COc1ccc(N2CCC(C)(c3ccc(Cl)c(Cl)c3)C2=O)cc1OCCN1CCCCC1 (stereo not drawn)	CL/F [4]: 65 mL/min/kg; bioavailability [8]: 13%; Kp [9]: 5
> 1.26	0.02	> 0.794	COc1ccc(C2CCN(c3cccc(F)c3)C2=O)cc1OCCN1CCCCC1 (stereo not drawn)	
0.398	0.00631	1	COc1ccc(N2CC=C(c3ccc(F)cc3)C2=O)cc1OCCN1CCCCC1	
0.398	0.00398		COc1ccc(N2CC=C(c3ccc(Br)cc3)C2=O)cc1OCCN1CCC(C)CC1	Log Ki [3]: > -6.2

Ki [1] [µM]	Ki [2] [µM]	Ki [3] [µM]	Structure (SMILES)	further results
> 1.58	0.398	> 1.58	Cc1ccc(N2CCC(c3ccc(Cl)c(Cl)c3)C2=O)cc1OCCN1CCCCC1 (stereo not drawn)	
> 6.31	0.00398	0.316	COc1ccc(N2CC=C(c3ccc(Cl)c(Cl)c3)C2=O)cc1OCCN1CCC(C)(C)CC1	
0.631	0.000794	0.501	COc1ccc(N2CC=C(c3cccc(F)c3)C2=O)cc1OCCN1CCCCC1	
0.794	0.00501	0.501	COc1ccc(N2CC=C(c3cccc(Cl)c3)C2=O)cc1OCCN1CCC(C)CC1	
0.501	0.0126	1.58	COc1ccc(N2CCC(c3ccc(Cl)c(Cl)c3)C2=O)cc1OCCN1CCCCC1 (stereo not drawn)	
> 2.51	0.1	> 5.01	COc1ccc(N2CCC(c3ccc(F)cc3)C2=O)cc1OCCN1CCCCC1 (stereo not drawn)	
> 0.794	0.0126	> 1	COc1ccc(N2CC=C(c3ccc(Cl)c(Cl)c3)C2=O)cc1OCCN1CCC(C(C)C)CC1	
0.398	0.0126	2	COc1ccc(N2CCC(c3ccc(Cl)c(Cl)c3)C2=O)cc1OCCN1CCC(C)CC1 (stereo not drawn)	
> 2	0.02	1.58	COc1ccc(N2CCC(c3ccc(OC)c(OCCN4CCCCC4)c3)C2=O)cc1Cl (stereo not drawn)	
> 1	0.000316	> 1	COc1ccc(N2CC=C(c3ccc(C)cc3)C2=O)cc1OCCN1CCCCC1	
0.794	0.00501	> 0.794	COc1ccc(N2CC=C(c3cccc(C(F)(F)F)c3)C2=O)cc1OCCN1CCCCC1	
1	0.00794	> 1.58	COc1ccc(N2CC=C(c3ccc(Cl)cc3)C2=O)cc1OCCN1CCCCC1	
> 1.26	0.126	> 2	Cc1ccc(N2CC=C(c3ccc(Cl)c(Cl)c3)C2=O)cc1OCCN1CCCCC1	
> 1	0.1	> 1.58	O=C1C(c2ccc(Cl)c(Cl)c2)CCN1c1ccc(Cl)c(OCCN2CCCCC2)c1 (stereo not drawn)	
3.16	0.794	1.58	O=C1C(c2ccc(Cl)c(Cl)c2)CCN1c1ccc(OC(F)(F)F)c(OCCN2CCCCC2)c1 (stereo not drawn)	
> 1.26	0.2	> 10	O=C1C(c2ccc(Cl)c(Cl)c2)=CCN1c1ccc(N2CCCC2)c(OCCN2CCCCC2)c1	
1.58	0.0126	> 10	COc1ccc(N2CC=C(c3ccc(C(F)(F)F)cc3)C2=O)cc1OCCN1CCC(C)CC1	
3.98	0.00631	> 1.58	COc1ccc(N2CC=C(c3ccc(Cl)c(Cl)c3)C2=O)cc1OCCN1CCOCC1	
0.631	0.00398	> 1.58	COc1ccc(N2CC=C(c3ccc(Cl)c(Cl)c3)C2=O)cc1OCCN1CCCC1	
0.398	0.0126	> 1	COc1ccc(N2CCC(c3ccc(Cl)c(Cl)c3)C2=O)cc1OCCN1CCC(C)(C)CC1 (stereo not drawn)	
0.398	0.0251	> 1	COc1ccc(N2CCC(c3ccc(Cl)c(Cl)c3)C2=O)cc1OCCN1CCC(C(C)C)CC1 (stereo not drawn)	
> 1.26	0.0631	> 1.58	O=C1C(c2ccc(Cl)c(Cl)c2)=CCN1c1ccc(Cl)c(OCCN2CCCCC2)c1	
0.501	0.126	0.2	COc1ccc(C2=C(C)CN(c3ccc(Cl)c(Cl)c3)C2=O)cc1OCCN1CCCCC1	
0.251	0.00316	1.26	COc1ccc(N2CC=C(c3ccc(F)cc3)C2=O)cc1OCCN1CCC(C)CC1	
> 1.58	0.0501	> 1.58	CC(=O)Nc1ccc(N2CC=C(c3ccc(Cl)c(Cl)c3)C2=O)cc1OCCN1CCCCC1	

Structure (SMILES)	Ki [1] [µM]	Ki [2] [µM]	Ki [3] [µM]	further results
O=C1C(c2ccc(Cl)c(Cl)c2)=CCN1c1ccc(OC(F)(F)F)c(OCCN2CCCCC2)c1	> 10	> 1.26	> 3.16	
COc1ccc(C2(C)CCN(c3ccc(Cl)c(Cl)c3)C2=O)cc1OCCN1CCCCC1 (stereo not drawn)	0.501	0.01		Log Ki [3]: > -6.3
